In patent US9855268B2, “Triazolo[4,5-d]pyrimidine derivatives” (Merck Patent GmbH, priority 2013, dated 2018) one finds IC50 data, which are given here for 21 compounds.

The target of assay [1] is T1, GCN2 (Homo sapiens, UniProt Q9P2K8). The experiment in a line: GCN2 enzyme assay (TR-FRET Lanthascreen, GFP-eIF2alpha phosphorylation). The settings on record: 10 μM ATP, 80 nM GFP-eIF2a, 30 nM GCN2. It counts as biochemical. A digest of the protocol:
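Phosphorylation of GFP-eIF2alpha (80 nM) by GCN2 run at room temperature with 10 μM ATP. After EDTA quench, product quantified by Lanthascreen TR-FRET (antibody–GFP complex, 340 nm excitation).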
Target sequence in this assay (Q9P2K8 whole entry, species assumed): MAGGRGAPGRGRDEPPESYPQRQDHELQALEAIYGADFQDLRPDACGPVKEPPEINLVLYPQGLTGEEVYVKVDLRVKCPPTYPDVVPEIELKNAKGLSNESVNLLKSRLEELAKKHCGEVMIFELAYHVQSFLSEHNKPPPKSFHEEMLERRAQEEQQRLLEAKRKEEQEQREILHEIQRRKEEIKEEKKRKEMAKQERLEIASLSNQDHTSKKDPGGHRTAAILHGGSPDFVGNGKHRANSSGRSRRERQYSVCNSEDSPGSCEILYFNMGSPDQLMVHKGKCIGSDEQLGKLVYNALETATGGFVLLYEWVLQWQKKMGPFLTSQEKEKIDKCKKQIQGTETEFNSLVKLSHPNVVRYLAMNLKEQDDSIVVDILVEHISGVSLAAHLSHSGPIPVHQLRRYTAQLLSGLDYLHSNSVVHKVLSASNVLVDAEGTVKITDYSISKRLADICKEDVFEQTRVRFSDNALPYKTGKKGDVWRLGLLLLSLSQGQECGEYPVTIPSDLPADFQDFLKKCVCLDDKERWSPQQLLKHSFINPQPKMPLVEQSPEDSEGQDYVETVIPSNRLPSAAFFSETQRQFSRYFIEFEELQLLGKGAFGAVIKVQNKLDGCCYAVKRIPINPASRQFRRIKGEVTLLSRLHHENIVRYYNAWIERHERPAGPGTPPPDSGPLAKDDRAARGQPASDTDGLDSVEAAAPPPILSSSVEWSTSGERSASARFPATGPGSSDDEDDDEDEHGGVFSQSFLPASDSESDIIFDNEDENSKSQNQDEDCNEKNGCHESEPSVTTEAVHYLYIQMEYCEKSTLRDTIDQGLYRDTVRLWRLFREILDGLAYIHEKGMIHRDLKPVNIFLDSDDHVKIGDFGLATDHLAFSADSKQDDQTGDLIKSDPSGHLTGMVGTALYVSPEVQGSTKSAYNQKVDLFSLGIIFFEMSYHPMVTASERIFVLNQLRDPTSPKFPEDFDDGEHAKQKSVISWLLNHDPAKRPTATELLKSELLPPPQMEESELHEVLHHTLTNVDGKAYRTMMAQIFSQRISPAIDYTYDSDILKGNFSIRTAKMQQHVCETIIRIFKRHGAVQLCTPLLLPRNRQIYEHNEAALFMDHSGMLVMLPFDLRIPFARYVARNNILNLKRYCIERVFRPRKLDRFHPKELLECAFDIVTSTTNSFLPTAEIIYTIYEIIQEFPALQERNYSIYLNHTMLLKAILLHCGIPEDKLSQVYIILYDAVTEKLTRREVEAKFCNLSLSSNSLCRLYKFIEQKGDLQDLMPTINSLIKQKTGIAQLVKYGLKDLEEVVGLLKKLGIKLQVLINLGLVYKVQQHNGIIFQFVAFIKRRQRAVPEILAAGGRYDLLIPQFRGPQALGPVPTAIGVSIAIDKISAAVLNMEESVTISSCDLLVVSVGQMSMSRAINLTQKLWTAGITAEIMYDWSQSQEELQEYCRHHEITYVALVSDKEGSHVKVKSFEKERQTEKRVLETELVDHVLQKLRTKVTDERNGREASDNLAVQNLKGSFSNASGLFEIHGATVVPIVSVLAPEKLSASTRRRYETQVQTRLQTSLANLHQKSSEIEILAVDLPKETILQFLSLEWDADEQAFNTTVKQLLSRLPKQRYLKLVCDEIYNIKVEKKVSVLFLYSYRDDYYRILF

In assay [2] the target is GSK3α(h) (Homo sapiens, UniProt P49840). The assay can be described thus: GSK3α radiometric kinase assay (33P-ATP, phospho GS2 peptide). As to conditions: read-out: IC50 GSK3α (enzyme assay). It counts as biochemical. A digest of the protocol: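 Human GSK3α incubated with 20 μM phospho-GS2 peptide in 8 mM MOPS pH 7,0, 10 mM Mg-acetate and [γ-33P]ATP (concentration as required), started with MgATP. After 40 minutes at room temperature, stopped with phosphoric acid; 33P incorporation measured by filtermat spotting and scintillation counting.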
GSK3α(h), sequence (P49840 whole entry): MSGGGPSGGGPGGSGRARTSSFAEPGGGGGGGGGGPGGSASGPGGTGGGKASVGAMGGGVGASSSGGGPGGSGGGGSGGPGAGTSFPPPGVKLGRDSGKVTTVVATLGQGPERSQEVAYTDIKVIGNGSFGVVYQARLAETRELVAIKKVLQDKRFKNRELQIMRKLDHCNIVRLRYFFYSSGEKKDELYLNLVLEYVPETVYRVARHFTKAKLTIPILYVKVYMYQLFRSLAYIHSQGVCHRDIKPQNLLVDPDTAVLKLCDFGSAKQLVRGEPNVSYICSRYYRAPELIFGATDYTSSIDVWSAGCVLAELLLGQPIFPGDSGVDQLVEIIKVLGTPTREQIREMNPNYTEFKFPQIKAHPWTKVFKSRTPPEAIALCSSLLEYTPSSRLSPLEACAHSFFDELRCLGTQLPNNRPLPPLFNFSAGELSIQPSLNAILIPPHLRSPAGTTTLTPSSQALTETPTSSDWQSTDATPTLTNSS

Assay [3] deals with GSK3β(h) (Homo sapiens, UniProt P49841). The experiment in a line: GSK3β radiometric kinase assay (33P-ATP, phospho GS2 peptide). It counts as biochemical. The settings on record: read-out: IC50 GSK3β (enzyme assay). As to the method: GSK3β(h) is incubated with 8 mM MOPS pH 7,0, 0,2 mM EDTA, 20 μM
GSK3β(h), sequence (P49841 whole entry): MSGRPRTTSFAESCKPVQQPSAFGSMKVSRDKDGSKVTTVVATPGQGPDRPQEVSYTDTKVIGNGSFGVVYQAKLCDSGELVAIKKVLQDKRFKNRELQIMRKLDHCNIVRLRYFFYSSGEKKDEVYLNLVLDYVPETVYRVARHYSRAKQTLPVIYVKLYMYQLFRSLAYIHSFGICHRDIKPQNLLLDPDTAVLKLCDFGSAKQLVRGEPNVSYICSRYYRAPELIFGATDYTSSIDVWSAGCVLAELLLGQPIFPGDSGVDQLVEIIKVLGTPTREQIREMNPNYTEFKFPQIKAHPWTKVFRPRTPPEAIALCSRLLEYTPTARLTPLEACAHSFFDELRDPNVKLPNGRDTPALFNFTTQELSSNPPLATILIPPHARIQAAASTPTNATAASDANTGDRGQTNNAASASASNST
[…](p)EDEEE (phosphor GS2 peptide), 10 mM Mg-acetate and [gamma-33P-ATP](specific activity approx. 500 cpm/Pmol, concentration as required). The reaction is initiated by the addition of the MgATP. After incubation for 40 minutes at the room temperature, the Reaction is stopped by the addition of 3% phosphoric acid solution. 10 μL of reaction is then spotted onto a P30 filtermat and washed three times for 5 minutes in 50 mM phosphoric acid and once in methanol prior to drying and scintillation counting.

Assay [4] addresses T1, GCN2. The experiment in a line: Cellular assay of GCN2 activity (phospho-eIF2alpha immunocytochemistry after tryptophanol). Also noted: endogenous in cells; host or cells: U2OS. The settings on record: Human U2OS cells, 2 h compound, 600 μM tryptophanol 30 min. It counts as cell-based. As to the method: Cellular Assay for the Determination of Compound Activities
Human U2OS cells (2000 cells/well) are seeded into 384-well plates and incubated for 20 hours.
The next day, the cells are treated with the test compounds and incubated for 2 hours. Then, tryptophanol, at a final concentration of 600 μM, is added to the cells and those are incubated for 30 minutes.
The analysis of cellular GCN2 activities is done by immunocytochemistry.
Briefly, cells are fixated on the well surfaces by formaldehyde and permeabilised with Triton X-100.
The analysis and quantification of phosphorylated GCN2 is done by scanning the plates in the Acumen Explorer system (TTPLabtech). The obtained data are normalised against the untreated control wells (DMSO only) and expressed as % effect values. The determination of IC50 values is done by using the Graph Pad Prism software.
Target sequence in this assay (Q9P2K8 whole entry): as the sequence (Q9P2K8 whole entry, species assumed) above

Consider `COc1ccc(-n2nnc3cnc(N[C@@H]4CCC[C@@H](C(N)=O)C4)nc32)cc1` (relative stereo) [A148, (trans)-3-[3-(4-methoxy-phenyl)-3H-[1,2,3]triazolo[4,5-d]pyrimidin-5-ylamino]-cyclohexanecarboxylic acid amide], for which the IC50 in assay [1] is below 1000 nM; in assay [2] it was below 1000 nM; in assay [3], 1000 to 5000 nM.

On to `Cc1ncc2cc(-n3nnc4cnc(N[C@@H]5CC[C@@H](O)C5)nc43)ccc2n1` (relative stereo) [A209, (trans)-3-[3-(2-methyl-quinazolin-6-yl)-3H-[1,2,3]triazolo[4,5-d]pyrimidin-5-ylamino]-cyclopentanol], for which the IC50 in assay [1], in assay [2] and in assay [3] was below 1000 nM each time.

Turning to `COc1ccc(-n2nnc3cnc(N[C@H]4CC[C@H](S(N)(=O)=O)C4)nc32)cc1` (relative stereo) [A288, (trans)-3-[3-(4-methoxy-phenyl)-3H-[1,2,3]triazolo[4,5-d]pyrimidin-5-ylamino]-cyclopentanesulfonic acid amide], the half-inhibitory concentration (IC50) in assay [1], in assay [2] and in assay [3] was below 1000 nM each time.

For the compound `COc1ccc(-n2nnc3cnc(N[C@@H]4CCN(c5cnn(C)c5)C4)nc32)cc1` [A115, [3-(4-methoxy-phenyl)-3H-[1,2,3]triazolo[4,5-d]pyrimidin-5-yl]-[(R)-1-(1-methyl-1H-pyrazol-4-yl)-pyrrolidin-3-yl]-amine], the IC50 in assay [1], in assay [2] and in assay [3] was below 1000 nM each time.

`N[C@H]1CC[C@@H](Nc2ncc3nnn(-c4ccc5ncccc5c4)c3n2)C1` [A119, (1S,3R)-N3-(3-quinolin-6-yl-3H-[1,2,3]triazolo[4,5-d]pyrimidin-5-yl)-cyclopentane-1,3-diamine]: the values for the IC50 in assay [1], in assay [2] and in assay [3] were below 1000 nM, below 1000 nM and 1000 to 5000 nM, respectively.

As for `CN1CCN(CCC(=O)N2CC[C@@H](Nc3ncc4nnn(-c5ccc6ncccc6c5)c4n3)C2)CC1` [A133, 3-(4-methyl-piperazin-1-yl)-1-[(R)-3-(3-quinolin-6-yl-3H-[1,2,3]triazolo[4,5-d]pyrimidin-5-ylamino)-pyrrolidin-1-yl]-propan-1-one], the half-maximal inhibitory concentration (IC50) is below 1000 nM in assay [1], below 1000 nM in assay [2] and 1000 to 5000 nM in assay [3].

Regarding `Cc1ccc2cc(-n3nnc4cnc(N[C@@H]5CCN(C(=O)CCN6CCN(C)CC6)C5)nc43)ccc2n1` [A134, 3-(4-methyl-piperazin-1-yl)-1-{(R)-3-[3-(2-methyl-quinolin-6-yl)-3H-[1,2,3]triazolo[4,5-d]pyrimidin-5-ylamino]-pyrrolidin-1-yl}-propan-1-one], the results for the IC50 in assay [1], in assay [2] and in assay [3] were below 1000 nM, below 1000 nM and 1000 to 5000 nM, respectively.

Consider `COc1ccc(-n2nnc3cnc(N[C@@H]4CC[C@H](C(N)=O)C4)nc32)cc1` [A136, (1S,3R)-3-[3-(4-methoxy-phenyl)-3H-[1,2,3]triazolo[4,5-d]pyrimidin-5-ylamino]-cyclopentanecarboxylic acid amide], for which the IC50 in assay [1], in assay [2] and in assay [3] was below 1000 nM throughout.

As to `COc1ccc(-n2nnc3cnc(N[C@H]4CC[C@H](C(N)=O)C4)nc32)cc1` [A137, (1S,3S)-3-[3-(4-methoxy-phenyl)-3H-[1,2,3]triazolo[4,5-d]pyrimidin-5-ylamino]-cyclopentanecarboxylic acid amide], the half-inhibitory concentration (IC50) in assay [1], in assay [2] and in assay [3] was below 1000 nM in each case.

As for `COc1ccc(-n2nnc3cnc(N[C@H]4C[C@H](C(N)=O)C4)nc32)cc1` [A145, (trans)-3-[3-(4-methoxy-phenyl)-3H-[1,2,3]triazolo[4,5-d]pyrimidin-5-ylamino]-cyclobutanecarboxylic acid amide], the IC50 in assay [1], in assay [2] and in assay [3] was below 1000 nM throughout.

Regarding `NC(=O)[C@@H]1CC[C@@H](Nc2ncc3nnn(-c4ccc(N5CCCC5)cc4)c3n2)C1` [A146, (1R,3R)-3-[3-(4-pyrrolidin-1-yl-phenyl)-3H-[1,2,3]triazolo[4,5-d]pyrimidin-5-ylamino]-cyclopentanecarboxylic acid amide], the concentration for half-maximal inhibition (IC50) in assay [1], in assay [2] and in assay [3] was below 1000 nM throughout.

For `NC(=O)[C@@H]1CC[C@@H](Nc2ncc3nnn(-c4ccc5c(c4)OCCO5)c3n2)C1` [A156, (1R,3R)-3-[3-(2,3-dihydro-benzo[1,4]dioxin-6-yl)-3H-[1,2,3]triazolo[4,5-d]pyrimidin-5-ylamino]-cyclopentanecarboxylic acid amide], the concentration for half-maximal inhibition (IC50) in assay [1], in assay [2] and in assay [3] was below 1000 nM in each case.

For the compound `COCCn1cc(-n2nnc3cnc(N[C@@H]4CC[C@@H](C(N)=O)C4)nc32)cn1` [A159, (1R,3R)-3-{3-[1-(2-methoxy-ethyl)-1H-pyrazol-4-yl]-3H-[1,2,3]triazolo[4,5-d]-pyrimidin-5-ylamino}-cyclopentanecarboxylic acid amide], the IC50 in assay [1], in assay [2] and in assay [3] was below 1000 nM each time.

For the compound `NC(=O)[C@@H]1CC[C@@H](Nc2ncc3nnn(-c4ccc(OCCn5cccn5)cc4)c3n2)C1` [A160, (1R,3R)-3-{3-[4-(2-pyrazol-1-yl-ethoxy)-phenyl]-3H-[1,2,3]triazolo[4,5-d]-pyrimidin-5-ylamino}-cyclopentanecarboxylic acid amide], the half-inhibitory concentration (IC50) in assay [1], in assay [2] and in assay [3] was below 1000 nM throughout.

Consider `NC(=O)[C@@H]1CC[C@@H](Nc2ncc3nnn(-c4ccc(I)cn4)c3n2)C1` [A177, (1R,3R)-3-[3-(5-iodo-pyridin-2-yl)-3H-[1,2,3]triazolo[4,5-d]pyrimidin-5-ylamino]-cyclopentanecarboxylic acid amide], for which the IC50 in assay [1], in assay [2] and in assay [3] was below 1000 nM in each case.

Turning to `CCOc1ccc(-n2nnc3cnc(N[C@@H]4CC[C@@H](C(N)=O)C4)nc32)nc1` [A178, (1R,3R)-3-[3-(5-ethoxy-pyridin-2-yl)-3H-[1,2,3]triazolo[4,5-d]pyrimidin-5-ylamino]-cyclopentanecarboxylic acid amide], the IC50 in assay [1], in assay [2] and in assay [3] was below 1000 nM each time.

As to `CCOc1ccc(-n2nnc3cnc(N[C@@H]4CC[C@@H](C(N)=O)C4)nc32)cn1` [A179, (1R,3R)-3-[3-(6-ethoxy-pyridin-3-yl)-3H-[1,2,3]triazolo[4,5-d]pyrimidin-5-ylamino]-cyclopentanecarboxylic acid amide], the 50% inhibitory concentration (IC50) in assay [1], in assay [2] and in assay [3] was below 1000 nM throughout.

Regarding `COc1ccc2cc(-n3nnc4cnc(N[C@@H]5CC[C@@H](C(N)=O)C5)nc43)ccc2n1` [A181, (1R,3R)-3-[3-(2-methoxy-quinolin-6-yl)-3H-[1,2,3]triazolo[4,5-d]pyrimidin-5-ylamino]-cyclopentanecarboxylic acid amide], the IC50 in assay [1], in assay [2] and in assay [3] was below 1000 nM in each case.

Consider `Cc1nc2cc(-n3nnc4cnc(N[C@@H]5CC[C@@H](C(N)=O)C5)nc43)ccc2n1C` [A183, (1R,3R)-3-[3-(1,2-dimethyl-1H-benzimidazol-5-yl)-3H-[1,2,3]triazolo[4,5-d]-pyrimidin-5-ylamino]-cyclopentanecarboxylic acid amide], for which the half-maximal inhibitory concentration (IC50) in assay [1], in assay [2] and in assay [3] was below 1000 nM in each case.

On to `NC(=O)[C@@H]1CC[C@@H](Nc2ncc3nnn(-c4ccc5ncccc5n4)c3n2)C1` [A194, (1R,3R)-3-(3-[1,5]naphthyridin-2-yl-3H-[1,2,3]triazolo[4,5-d]pyrimidin-5-ylamino)-cyclopentanecarboxylic acid amide], for which the IC50 in assay [1], in assay [2] and in assay [3] was below 1000 nM in each case.

Turning to `NC(=O)[C@H]1CC[C@@H](Nc2ncc3nnn(-c4ccc(-c5cnn(CCO)c5)cc4)c3n2)C1` [A258, (1S,3R)-3-(3-{4-[1-(2-hydroxy-ethyl)-1H-pyrazol-4-yl]-phenyl}-3H-[1,2,3]triazolo[4,5-d]pyrimidin-5-ylamino)-cyclopentanecarboxylic acid amide], the figures for the IC50 in assay [1], in assay [2] and in assay [4] were below 1000 nM, below 1000 nM and 1000 to 5000 nM, respectively.
